Assay results from patent US20080188654A1, “Compounds for treatment of inflammation, diabetes and related disorders” (Theracos, Inc., priority 2001, published 2008).

Assays:
[1] = system: IL-6; test: Inhibition of LPS-induced IL-6 production in RAW264.7 cells (ELISA); assay type: cell-based, mouse
[2] = system: ob/ob mice; test: Lipid-lowering effects in ob/ob mice; assay type: in vivo, mouse; details: 10 mg/kg daily oral, day 8, versus vehicle, p<0.05
[3] = system: iNOS; test: Inhibition of LPS-induced iNOS production in RAW264.7 cells (Western blot); assay type: cell-based, mouse; details: 10, 30 or 100 μM; FIG. 8
[4] = system: TNF-alpha; test: Inhibition of LPS-induced TNF-alpha production in RAW264.7 cells (ELISA); assay type: cell-based, mouse
[5] = system: ob/ob mice; test: Glucose-lowering effect in ob/ob mice; assay type: in vivo, mouse; details: 10 mg/kg daily oral, p<0.05
[6] = system: COX-2; test: Inhibition of LPS-induced COX-2 production in RAW264.7 cells (Western blot); assay type: cell-based, mouse; details: LPS-stimulated cells; FIG. 8
[7] = system: COX-1; test: COX-1 production in LPS-stimulated RAW264.7 cells (Western blot); assay type: cell-based, mouse; details: FIG. 8
[8] = system: 3T3-L1 differentiated adipocytes; test: Glucose uptake in 3T3-L1 adipocytes (14C-deoxyglucose); assay type: cell-based, mouse; details: different concentrations, 48 hours; percentage of basal; FIG. 1
[9] = system: 3T3-L1 adipocytes; test: Insulin-stimulated glucose uptake in 3T3-L1 adipocytes; assay type: cell-based, mouse; details: 5 μM, 48 hours; compared to vehicle; FIG. 2
[10] = system: IL-1 beta; test: Inhibition of LPS-induced IL-1 beta production in RAW264.7 cells (ELISA); assay type: cell-based, mouse
[11] = system: human elutriated monocytes; test: Cell viability of human monocytes (MTS/PMS assay); assay type: cell-based; details: 30 μM, 20 h
[12] = system: TNF-alpha; test: Inhibition of LPS-induced TNF-alpha release by human monocytes; assay type: cell-based; details: Monocyte, read-out: Percent Inhibition of TNF-alpha Release

SMILES | inhibition of LPS-induced IL-6 production ([1]; 10, 30 or 100 μM, FIG. 7) | inhibitory effect on IL-6 compared with dexamethasone ([1]; versus 1 μM dexamethasone) | free fatty acids lower [2] | serum triglycerides lower [2] | inhibition of LPS-induced iNOS production [3] | inhibition of LPS-induced TNF-alpha production ([4]; 10, 30 or 100 μM, FIG. 5) | inhibitory effect on TNF-alpha compared with dexamethasone ([4]; versus 1 μM dexamethasone) | decrease in blood glucose levels ([5]; day 6, versus vehicle) | decrease in blood glucose levels ([5]; day 8, versus vehicle) | inhibition of COX-2 production [6] | inhibition of COX-1 production [7] | glucose uptake [8] | stimulation of glucose uptake by insulin [9] | inhibition of LPS-induced IL-1 beta production ([10]; 10, 30 or 100 μM, FIG. 6) | inhibition of IL-1 beta compared with dexamethasone ([10]; versus 1 μM dexamethasone) | Cell viability [11] | inhibition at 3 µM ([12]; 3.0 μM) | inhibition at 10 µM ([12]; 10 μM)
COC(=O)C(=Cc1cc(OC)cc(OC)c1)c1ccc(Oc2ccc(CCC(=O)NC(N)=O)cc2)cc1 [Compound 1, 3-(3,5-dimethoxyphenyl)-2-{4-[4-(3-oxo-3-ureidopropyl)-phenoxy]-phenyl}-acrylic acid methyl ester] | significantly inhibited | greater than that observed with dexamethasone | 19% | 49% | dose-dependent inhibition | significantly inhibited | approached that seen with dexamethasone | 36% | 23% | selectively inhibited production of COX-2 | not COX-1 | dose-dependent increase in glucose uptake | enhanced the stimulation of glucose uptake by insulin | significantly inhibited | of the same approximate magnitude as that seen with dexamethasone | – | – | –
COc1cc(/C=C(/C(=O)N2CCCCC2)c2ccc(Oc3ccc(CCC(=O)NC(N)=O)cc3)cc2)cc(OC)c1 [Compound 51, [3-(4-{4-[2-(3,5-dimethoxyphenyl)-1-(piperidine-1-carbonyl)-vinyl]-phenoxy}-phenyl)-propionyl]-urea] | – | – | – | – | – | – | – | – | – | – | – | – | – | – | – | * (Cell viability <70%) | 25% | 57%
